# Measured values published in patent publication US20260355225A1 (priority 2022, published 2026).
# Where “and” joins values, the source holds several entries; their conditions need not be identical. Identical values can stand only once.
# Tests used:
# [1] = Cytotoxicity of D-xylose, MTT assay, absence of viral infection (Example 1); type: cell-based; conditions: monkey, vero cells
# Description: (§1) Cells (Vero E6) were used, with two modes of administration: either at the same time or 6 h before infection with SARS-CoV-2 (isolated early).
# (§2) The readout for this test is CPE, so the infection will be stopped at 72 hpi (hours post-infection), and the compound will remain for the duration of the experiment. In parallel, the cytotoxicity of the same compound concentrations will be tested in the absence of viral infection.
# (§3) The day before the experiment, the 8,000 cells/well are seeded in two 96-well plates (clear, Sarstedt), one for the antiviral study and one for the cytotoxicity study.
# (§4) 134.4 μl of the 1 M composition is transferred to 1,465.6 μl of infection medium (=84 mM, twice the final maximum concentration).
# (§5) Next, the cell support in the cytotoxicity plate is removed.
# (§6) Immediately afterwards, 50 μl of undiluted infection medium is added to all the wells.
# (§7) Next, 50 μl of infection medium without diluent is added to columns 4 to 6.
# (§8) Next, the plate is incubated at 37 °C, 5% CO2 for 48 h.
# (§9) After 72 h, when the CPE is evident, an MTT assay is performed for the antiviral and cytotoxicity plates.
# Vero AD cells = experiment: as above; type: cell-based; conditions: 6 h pre-treatment
# Description: as §1, §2, §3, §4, §5, §6, §7, §8, §9
# [2] = according to Sigma cat #1.08689; cited from earlier work
# cells = conditions: cited from earlier work
# [3] = tested on: glycated hemoglobin (HbA1c); conditions: healthy person; cited from earlier work
# [4] = D-xylose absorption tests; cited from earlier work
# glycosaminoglycans = conditions: fibroblasts, keranocytes, CHO, BHK, BAE and other cells; cited from earlier work
# [5] = Cytotoxicity of D-xylose alone or + insulin, MTT assay, absence of viral infection (Example 2); conditions: human, hela tzmbl cells
# HeLa TZMBL cells = experiment: as above; conditions: for Cytotoxicity percentage / Viability percentage: 2880 min
# [6] = Antiviral assay against HIV-1 NL4-3, percentage of infected cells by immunofluorescence (Example 2); conditions: human, hela tzmbl cells, Viability Percentages, D-xylose 104.000 mM, replicate wells
# HIV-1 NL4-3 = experiment: as above; conditions: Human immunodeficiency virus 1, NL43, 48 h
# SARS-CoV-2 = experiment: Antiviral assay, inhibition of virus-induced cytopathic effect (CPE) of SARS-CoV-2 by MTT assay (Example 1); conditions: for Viability percentage: 4320 min
smiles,measurement,setting,value
O=C[C@H](O)[C@@H](O)[C@H](O)CO [D-xylose],viability at 328.125 µM,"[1]; 6 h pre-treatment, 0.328125 mM, read-out: Viability percentage",130%
same,viability at 656.25 µM,"[1]; 6 h pre-treatment, 0.65625 mM, read-out: Viability percentage",90.9%
same,viability at 1312.5 µM,"[1]; 6 h pre-treatment, 1.3125 mM, read-out: Viability percentage",122%
same,viability at 2625 µM,"[1]; 6 h pre-treatment, 2.625 mM, read-out: Viability percentage",108%
same,viability at 5250 µM,"[1]; 6 h pre-treatment, 5.25 mM, read-out: Viability percentage",115%
same,viability at 10500 µM,"[1]; 6 h pre-treatment, 10.5 mM, read-out: Viability percentage",109%
same,viability at 21000 µM,"[1]; 6 h pre-treatment, 21 mM, read-out: Viability percentage",110%
same,viability at 42000 µM,"[1]; 6 h pre-treatment, 42 mM, read-out: Viability percentage",108%
same,CC50,"[1]; MTT, no virus",> 42 mM
same,Viability percentage,"Vero AD cells; 0.328125 mM, 328.125 µM",119.81%
same,Viability percentage,"Vero AD cells; 0.65625 mM, 656.25 µM",100.84% and 108.33%
same,Cytotoxicity percentage,"Vero AD cells; 1.3125 mM, 1312.5 µM",−21.81% and −24.31% and −17.82%
same,Viability percentage,"Vero AD cells; 1.3125 mM, 1312.5 µM",124.31% and 117.82%
same,Viability percentage,"Vero AD cells; 2.625 mM, 2625 µM",118.32% and 114.82%
same,Cytotoxicity percentage,"Vero AD cells; 5.25 mM, 5250 µM",−15.32% and −18.81% and −10.83%
same,Viability percentage,"Vero AD cells; 5.25 mM, 5250 µM",118.81% and 110.83%
same,Cytotoxicity percentage,"Vero AD cells; 10.5 mM, 10500 µM",−9.33% and −10.83% and −6.33%
same,Viability percentage,"Vero AD cells; 10.5 mM, 10500 µM",110.83% and 106.33%
same,Cytotoxicity percentage,"Vero AD cells; 21 mM, 21000 µM",−9.83% and −10.33%
same,Viability percentage,"Vero AD cells; 21 mM, 21000 µM",110.33%
same,Cytotoxicity percentage,"Vero AD cells; 42 mM, 42000 µM",−7.83% and −9.83% and −3.34%
same,Viability percentage,"Vero AD cells; 42 mM, 42000 µM",103.34%
same,solubility,[2],550 mg/mL
same,xylose in cytosol at equilibrium,cells; in the presence of insulin,80%
same,xylose in plasma at equilibrium,cells; in the presence of insulin,20%
same,increase of penetration rate of D-xylose into the cells,cells; with insulin,two to five times
same,effect on glycated hemoglobin (HbA1c) levels,[3],little or no effect
same,side effects,[4],"laxative effects in adults, diarrhea, nausea, and vomiting"
same,stimulation of glycosaminoglycans,glycosaminoglycans,proven glycosaminoglycan stimulators of several cell types
same,"cytotoxicity at 48 h, 3250 µM","[5]; Cytotoxicity percentage, D-xylose 3.25 mM",5.24%
same,"cytotoxicity at 48 h, 26000 µM","[5]; Cytotoxicity percentage, D-xylose 26 mM",9.04%
same,"cytotoxicity at 48 h, 52000 µM","[5]; Cytotoxicity percentage, D-xylose 52 mM",12.1%
same,"cytotoxicity at 48 h, 104000 µM","[5]; Cytotoxicity percentage, D-xylose 104 mM",14.1%
same,"viability at 48 h, 1625 µM","[5]; Viability percentage, D-xylose 1.625 mM",99.5%
same,"viability at 48 h, 3250 µM","[5]; Viability percentage, D-xylose 3.25 mM",94.8%
same,"viability at 48 h, 6500 µM","[5]; Viability percentage, D-xylose 6.5 mM",89.8%
same,"viability at 48 h, 13000 µM","[5]; Viability percentage, D-xylose 13 mM",90.1%
same,"viability at 48 h, 26000 µM","[5]; Viability percentage, D-xylose 26 mM",91%
same,"viability at 48 h, 52000 µM","[5]; Viability percentage, D-xylose 52 mM",87.9%
same,"viability at 48 h, 104000 µM","[5]; Viability percentage, D-xylose 104 mM",85.9%
same,median cytotoxic concentration (TC50),"HeLa TZMBL cells; 48 h, MTT",260.3
same,Results for Cytotoxicity (MTT readout),HeLa TZMBL cells; D-xylose 1.625 mM,2.399 and 2.351 and 2.424
same,Cytotoxicity percentage,"HeLa TZMBL cells; D-xylose 1.625 mM, 1625 µM",0.47% and 2.50% and −0.58%
same,Viability percentage,"HeLa TZMBL cells; D-xylose 1.625 mM, 1625 µM",97.50% and 100.58%
same,Results for Cytotoxicity (MTT readout),HeLa TZMBL cells; D-xylose 3.25 mM,2.286 and 2.266 and 2.242
same,Cytotoxicity percentage,"HeLa TZMBL cells; D-xylose 3.25 mM, 3250 µM",6.09% and 7.10%
same,Viability percentage,"HeLa TZMBL cells; D-xylose 3.25 mM, 3250 µM",93.91% and 92.90%
same,Results for Cytotoxicity (MTT readout),HeLa TZMBL cells; D-xylose 6.5 mM,2.168 and 2.211 and 2.316
same,Cytotoxicity percentage,"HeLa TZMBL cells; D-xylose 6.5 mM, 6500 µM",10.22% and 8.41% and 3.98%
same,Viability percentage,"HeLa TZMBL cells; D-xylose 6.5 mM, 6500 µM",91.59% and 96.02%
same,Results for Cytotoxicity (MTT readout),HeLa TZMBL cells; D-xylose 13 mM,2.175 and 2.293 and 2.032
same,Viability percentage,"HeLa TZMBL cells; D-xylose 13 mM, 13000 µM",95.05% and 84.04%
same,Results for Cytotoxicity (MTT readout),HeLa TZMBL cells; D-xylose 26 mM,2.196 and 2.137 and 2.158
same,Cytotoxicity percentage,"HeLa TZMBL cells; D-xylose 26 mM, 26000 µM",11.53% and 10.64%
same,Viability percentage,"HeLa TZMBL cells; D-xylose 26 mM, 26000 µM",88.47% and 89.36%
same,Results for Cytotoxicity (MTT readout),HeLa TZMBL cells; D-xylose 52 mM,2.123 and 2.266 and 2.199
same,Cytotoxicity percentage,"HeLa TZMBL cells; D-xylose 52 mM, 52000 µM",6.09% and 8.91%
same,Viability percentage,"HeLa TZMBL cells; D-xylose 52 mM, 52000 µM",93.91% and 91.09%
same,Results for Cytotoxicity (MTT readout),HeLa TZMBL cells; D-xylose 104 mM,2.075 and 2.027 and 2.064
same,Cytotoxicity percentage,"HeLa TZMBL cells; D-xylose 104 mM, 104000 µM",16.17% and 14.61%
same,Viability percentage,"HeLa TZMBL cells; D-xylose 104 mM, 104000 µM",83.83% and 85.39%
same,"viability at 48 h, 104000 µM",[6],20.8%
same,activity at 1625 µM,"HIV-1 NL4-3; read-out: % Infection, D-xylose 1.625 mM, replicate wells",20.8%
same,activity at 3250 µM,"HIV-1 NL4-3; read-out: % Infection, D-xylose 3.250 mM, replicate wells",20.4%
same,activity at 6500 µM,"HIV-1 NL4-3; read-out: % Infection, D-xylose 6.500 mM, replicate wells",18.1%
same,activity at 13000 µM,"HIV-1 NL4-3; read-out: % Infection, D-xylose 13.000 mM, replicate wells",20.4%
same,activity at 26000 µM,"HIV-1 NL4-3; read-out: % Infection, D-xylose 26.000 mM, replicate wells",20.6%
same,activity at 52000 µM,"HIV-1 NL4-3; read-out: % Infection, D-xylose 52.000 mM, replicate wells",20.2%
same,activity at 104000 µM,"HIV-1 NL4-3; read-out: % Infection, D-xylose 104.000 mM, replicate wells",14.9%
same,absorbance at 570 nm,"SARS-CoV-2; 6 h pre-treatment, 0.328125 mM",0.067 and 0.073 and 0.088
same,absorbance at 570 nm,"SARS-CoV-2; 6 h pre-treatment, 0.65625 mM",0.08 and 0.081 and 0.085
same,Viability percentage,"SARS-CoV-2; 6 h pre-treatment, 0.65625 mM, 656.25 µM",−8.66% and −7.49% and −2.79%
same,absorbance at 570 nm,"SARS-CoV-2; 6 h pre-treatment, 1.3125 mM",0.08 and 0.099 and 0.091
same,absorbance at 570 nm,"SARS-CoV-2; 6 h pre-treatment, 2.625 mM",0.075 and 0.121 and 0.124
same,absorbance at 570 nm,"SARS-CoV-2; 6 h pre-treatment, 5.25 mM",0.087 and 0.106 and 0.098
same,absorbance at 570 nm,"SARS-CoV-2; 6 h pre-treatment, 10.5 mM",0.102 and 0.096
same,absorbance at 570 nm,"SARS-CoV-2; 6 h pre-treatment, 21 mM",0.116 and 0.109 and 0.098
same,absorbance at 570 nm,"SARS-CoV-2; 6 h pre-treatment, 42 mM",0.095 and 0.09 and 0.108
same,viability at 10500 µM,"SARS-CoV-2; Severe acute respiratory syndrome coronavirus 2, Vero C1008, in Chlorocebus sabaeus, 72 h, read-out: Viability percentage, 6 h pre-treatment, 10.5 mM",17.2%
same,viability at 656.25 µM,"SARS-CoV-2; Severe acute respiratory syndrome coronavirus 2, Vero C1008, in Chlorocebus sabaeus, 72 h, read-out: Viability percentage, at time of infection, 0.65625 mM",10.1%
same,IC50,"SARS-CoV-2; Severe acute respiratory syndrome coronavirus 2, co-administration of D-xylose and SARS-CoV-2",95.5 mM
same,IC50,"SARS-CoV-2; Severe acute respiratory syndrome coronavirus 2, pre-incubation of D-xylose 6 h prior to SARS-CoV-2 infection",26.2 mM
same,absorbance at 570 nm,"SARS-CoV-2; at time of infection, 0.328125 mM",0.088 and 0.087
same,Viability percentage,"SARS-CoV-2; at time of infection, 0.328125 mM, 328.125 µM",0.73% and −0.44%
same,absorbance at 570 nm,"SARS-CoV-2; at time of infection, 0.65625 mM",0.096 and 0.099 and 0.101
same,Viability percentage,"SARS-CoV-2; at time of infection, 0.65625 mM, 656.25 µM",13.66% and 16.01%
same,absorbance at 570 nm,"SARS-CoV-2; at time of infection, 1.3125 mM",0.096 and 0.094 and 0.091
same,Viability percentage,"SARS-CoV-2; at time of infection, 1.3125 mM, 1312.5 µM",7.78% and 4.26%
same,absorbance at 570 nm,"SARS-CoV-2; at time of infection, 2.625 mM",0.141 and 0.113 and 0.103
same,absorbance at 570 nm,"SARS-CoV-2; at time of infection, 5.25 mM",0.09 and 0.137 and 0.126
same,absorbance at 570 nm,"SARS-CoV-2; at time of infection, 10.5 mM",0.109 and 0.131 and 0.107
same,absorbance at 570 nm,"SARS-CoV-2; at time of infection, 21 mM",0.111 and 0.151 and 0.113
same,absorbance at 570 nm,"SARS-CoV-2; at time of infection, 42 mM",0.059 and 0.095 and 0.09
